Test results taken from BindingDB's records for patent US12110286 (Cancer Research Technology, 2024).

Biological target: B-cell lymphoma 6 protein (Homo sapiens, UniProt P41182)
Assay: HTRF In Vitro Assay
Description: The % inhibition at each concentration was calculated by normalising FRET ratio to the appropriate high (DMSO with all reagents) and low (DMSO without BCL6) controls.

## Cn1c(=O)n(CCC(C)(C)O)c2cc(Nc3nc(N4CCC(Cn5cccn5)CC4)ncc3Cl)ccc21 [US12110286, Example 35zb]
  IC50: 324 nM
